The test system of experiment [1] is human breast cancer Br-10. Nature of the experiment: Growth suppression of human breast cancer Br-10 transplanted in nude mice. The format is in vivo, mouse. The settings on record: for tumor volume: nude mice, TM-411 1 mg/kg oral daily 28 days, DXL 7.5 mg/kg i.v. every 4 days three times; for effect on suppression of the growth of the tumor (in words): nude mice transplanted with Br-10, same doses as Table 1. An excerpt: Tamibarotene (hereinafter, simply abbreviated to “TM-411”) was used as a synthetic retinoid and was also used in the following other Examples. Taxotere (hereinafter, abbreviated to “DXL”), which is a general name of that manufactured by sanofi-aventis K.K., was used as a chemotherapeutic agent.
A tumor cell mass of human breast cancer Br-10 was subcutaneously transplanted in dorsal portions of 6-week-old BALB/cAJcl-nu nude mice through a trocar. When the tumor volume reached 100 to 300 mm^3, the administration was started. TM-411 was orally administered once a day at a dose of 1 mg/kg for 28 days every day. DXL was intravenously administered from the first day at a dose of 7.5 mg/kg every 4 days three times.
In a combination use group of TM-411 and DXL, each agent was administered at the same amount and the same administration route as those in the single administration. Tumor diameters were measured every day from the day of the start of the administration (the 1st day) to the next day of the completion of the administration (the 29th day), and effect on suppression of the growth was investigated. […] In a control group, physiological saline was administered at the same amount and the same administration route as those in the single administration of each agent.

In experiment [2] the test system is human liver cancer JHH-7. Nature of the experiment: Growth suppression of human liver cancer JHH-7 transplanted in nude mice. In kind it is in vivo. The conditions noted are these: for tumor volume: nude mice, TM-411 3 mg/kg oral daily 20 days, 5-FU 15.2 mg/kg oral 8th to 12th day; for effect on suppression of the growth of the tumor (in words): nude mice transplanted with JHH-7, same doses as Table 2. As for the experimental part:
Fluorouracil (hereinafter, abbreviated to “5-FU”), which is a general name of that manufactured by Kyowa Hakko Kogyo Co., Ltd., was used as a chemotherapeutic agent.
A tumor cell mass of human liver cancer JHH-7 was subcutaneously transplanted in dorsal portions of 6-week-old BALB/cAJcl-nu nude mice through a trocar. When the tumor volume reached 100 to 300 mm^3, the administration was started. TM-411 was orally administered once a day at a dose of 3 mg/kg for 20 days every day. 5-FU was orally administered at a dose of 15.2 mg/kg for 5 days every day from the 8th day to the 12th day.
In a combination use group of TM-411 and 5-FU, each agent was administered at the same amount and the same administration route as those in the single administration. Tumor diameters were measured every day from the day of the start of the administration (the 1st day) to the next day of the completion of the administration (the 21st day), and effect on suppression of the growth was investigated. […] In a control group, physiological saline was administered at the same amount and the same administration route as those in the single administration of each agent.

Experiment [3] has as its system human liver cancer HePG2. The experiment in a line: Growth suppression of human liver cancer HePG2 transplanted in nude mice. In kind it is in vivo. The settings on record: for tumor volume: nude mice, TM-411 1 mg/kg oral daily 20 days, ADR 5 mg/kg i.v. once on first day; for effect on suppression of the growth of the tumor (in words): nude mice transplanted with HePG2, same doses as Table 3. The method, then:
Doxorubicin (hereinafter, abbreviated to “ADR”), which is a general name of that manufactured by Kyowa Hakko Kogyo Co., Ltd., was used as a chemotherapeutic agent.
About 2×2×2 mm of a tumor cell mass of human liver cancer HePG2 was subcutaneously transplanted in dorsal portions of 6-week-old BALB/cAJcl-nu nude mice through a trocar. The administration was started on the day (defined as the first day) two days after the transplantation. TM-411 was orally administered at a dose of 1 mg/kg for 20 days every day from the first day. ADR was intravenously administered at a dose of 5 mg/kg once on the first day.
In a combination use group of TM-411 and ADR, each agent was administered at the same amount and the same administration route as those in the single administration. Tumor diameters were measured every day from the day of the start of the administration (the 1st day) to the day of the completion of the administration (the 20th day), and effect on suppression of the growth was investigated. […] In a control group, physiological saline was administered at the same amount and the same administration route as those in the single administration of each agent.

Experiment [4] deals with human multiple myeloma U266. The experiment in a line: Blood human IgE in NOG mice transplanted with human multiple myeloma U266. The settings on record: for effect on blood concentration of human IgE (in words): NOG mice transplanted with U266; for Blood IgE level / Suppression ratio (blood IgE): NOG mice, 6 weeks after transplantation of U266. The format is in vivo. The method, then: Prednisolone (hereinafter, abbreviated to “PSL”), which is a general name of that manufactured by Shionogi & Co., Ltd., was used as a chemotherapeutic agent.
Seven-week-old NOD/SCID/γc^null (NOG) mice were divided into five groups of ten mice each (nine mice only in a control group), and […] cells of multiple myeloma cell line U266 were transplanted to each mouse via tail vein injection (the 0th day). The first group was used as a non-treated control group; in the second group, 1 mg/kg of TM-411 was orally administered for 28 days from the first day; in the third group, 3 mg/kg of TM-411 was orally administered for 28 days from the first day; in the fourth group, 7.5 mg/kg of PSL was orally administered for 8 days from the 21st day; and in the fifth group, 1 mg/kg of TM-411 was orally administered for 28 days from the first day and 7.5 mg/kg of PSL was orally administered in addition to the TM-411 for 8 days from the 21st day. Blood concentration of human IgE was measured 6 weeks after the transplantation of U266.

Setting [5] is: PSL 7.5 mg/kg oral 8 days from 21st day.

The source of these data is US20090117203A1, “KIT FOR CANCER TREATMENT AND PHARMACEUTICAL COMPOSITION FOR CANCER TREATMENT” (TMRC Co., Ltd., priority 2006, published 2009).

As for `CC(=O)O[C@@]12CO[C@@H]1C[C@H](O)[C@@]1(C)C(=O)[C@H](O)C3=C(C)[C@@H](OC(=O)[C@H](O)[C@@H](NC(=O)OC(C)(C)C)c4ccccc4)C[C@@](O)([C@@H](OC(=O)c4ccccc4)[C@H]21)C3(C)C` [DXL, Taxotere], the tumor volume in experiment [1] (1st day) is listed as 138.9 mm^3; in experiment [1] (5th day), 149.7 mm^3; in experiment [1] (8th day), 132.6 mm^3; in experiment [1] (12th day), 93.9 mm^3; in experiment [1] (15th day) it was 76.0 mm^3; in experiment [1] (19th day), 70.1 mm^3. For the same compound, the tumor volume is given as 59.3 mm^3 in experiment [1] (22nd day), 58.2 mm^3 in experiment [1] (25th day) and 62.3 mm^3 in experiment [1] (29th day). In addition, the “effect on suppression of the growth of the tumor (in words)” value (shortened to “effect on suppression”) in experiment [1] is “significantly suppressed”.
Turning to `O=c1[nH]cc(F)c(=O)[nH]1` [5-FU, Fluorouracil], the tumor volume is on record as 126.6 mm^3 in experiment [2] (1st day); 193.8 mm^3 in experiment [2] (4th day); 291.6 mm^3 in experiment [2] (7th day); 496.6 mm^3 in experiment [2] (11th day); 697.5 mm^3 in experiment [2] (14th day); 1071 mm^3 in experiment [2] (18th day). Further, in experiment [2] (21st day), the tumor volume stood at 1408 mm^3. The “effect on suppression” value in experiment [2] was “suppressed”.
For the compound `CC1(C)CCC(C)(C)c2cc(NC(=O)c3ccc(C(=O)O)cc3)ccc21` [TM-411, Tamibarotene], the tumor volume worked out at 15.8 mm^3 in experiment [3] (3rd day); 21.4 mm^3 in experiment [3] (5th day); 33.6 mm^3 in experiment [3] (7th day); 171.5 mm^3 in experiment [3] (9th day); 196 mm^3 in experiment [3] (11th day); 256 mm^3 in experiment [3] (13th day). The tumor volume in experiment [3] (15th day) is 520 mm^3; in experiment [3] (17th day) it was 600 mm^3; in experiment [3] (20th day), 726 mm^3; in experiment [2] (1st day), 136.1 mm^3; in experiment [2] (4th day), 169.8 mm^3; in experiment [2] (7th day), 201.8 mm^3. Besides, the tumor volume in experiment [2] (11th day) was 312.7 mm^3; in experiment [2] (14th day), 452.7 mm^3; in experiment [2] (18th day), 953.1 mm^3; in experiment [2] (21st day), 1097.4 mm^3; in experiment [1] (1st day), 136.4 mm^3; in experiment [1] (5th day), 173.6 mm^3. In addition, the tumor volume in experiment [1] (8th day) stood at 234.1 mm^3; in experiment [1] (12th day), 317.5 mm^3; in experiment [1] (15th day), 359.5 mm^3; in experiment [1] (19th day) it was 429.9 mm^3; in experiment [1] (22nd day), 451.7 mm^3; in experiment [1] (25th day), 455.7 mm^3. In addition, in experiment [1] (29th day), the tumor volume is 476.5 mm^3. Besides, the figures for the “effect on suppression” value in experiment [3], in experiment [2] and in experiment [1] were “suppressed the growth of the tumor”, “suppressed” and “significantly suppressed”, respectively. For the same compound, the “effect on blood concentration of human IgE (in words)” value in experiment [4] is given as “decreased”. The “Blood IgE level” value is 2519 ng/mL in experiment [4] (TM-411 1 mg/kg oral 28 days) and 1755 ng/mL in experiment [4] (TM-411 3 mg/kg oral 28 days). The “Suppression ratio (blood IgE)” value was determined as 6.5% in experiment [4] (TM-411 1 mg/kg oral 28 days) and 34.0% in experiment [4] (TM-411 3 mg/kg oral 28 days).
Take `COc1cccc2c1C(=O)c1c(O)c3c(c(O)c1C2=O)C[C@@](O)(C(=O)CO)C[C@@H]3O[C@H]1C[C@H](N)[C@H](O)[C@H](C)O1` [ADR, Doxorubicin]: the tumor volume in experiment [3] (3rd day) is reported as 4.0 mm^3; in experiment [3] (7th day), 18.8 mm^3; in experiment [3] (9th day), 45.5 mm^3; in experiment [3] (11th day) it was 180.0 mm^3; in experiment [3] (13th day), 410.5 mm^3; in experiment [3] (15th day), 650 mm^3. Besides, the tumor volume in experiment [3] (17th day) turned out to be 842 mm^3; in experiment [3] (20th day), 1000 mm^3. For the same compound, the “effect on suppression” value in experiment [3] was “suppressed the growth of the tumor”.
`C[C@]12C=CC(=O)C=C1CC[C@@H]1[C@@H]2[C@@H](O)C[C@@]2(C)[C@H]1CC[C@]2(O)C(=O)CO` [PSL, Prednisolone]: the “effect on blood concentration of human IgE (in words)” value in experiment [4] is “decreased”. Also, in experiment [4] (setting [5]), the “Blood IgE level” value amounted to 2204 ng/mL and the “Suppression ratio (blood IgE)” value stood at 18.2%.
